Data on two molecules can be found in patent publication US20090227781A1, “Glycolipid Derivative and Drug Containing the Same as Active Component” (priority 2005, published 2009).

For test [1], the system named is collagen induced arthritis (CIA). The conditions noted are these: Nonpatent Documents 2 to 4, Patent Document 2; cited from earlier work.
Test [2] relates to experimental autoimmune encephalomyelitis (EAE). The conditions noted are these: Nonpatent Documents 2 to 4, Patent Document 2; cited from earlier work.
Another test relates to mononuclear cells. The test can be described thus: Effect on liver mononuclear cells of Jα18 gene-deficient mice with no NKT cells. It counts as cell-based. The method, then:
(§1) Mononuclear cells were separated from the livers of C57BL/6J mice (8 weeks old, female) and incubated with the compound for 48 hours. […] The reaction by α-GC and slight intake of tritium and the slight amount of cytokine production observed for the compound at 30 ng/ml were not seen in Jα18 gene-deficient mice with no NKT cells, and, therefore, these reactions were confirmed to be NKT cell-dependent reactions (see FIG. 4).

The next test has as its system NKT cells. The test can be described thus: Effect of compound on NKT cells: liver mononuclear cells incubated with compound for 48 hours. The note with it: 48 hours incubation; FIG. 4. It counts as cell-based, C57BL/6J mice. The method, then: as §1

`CCCCCCCCCCCCCCCCCCCCCCCC(=O)N[C@@H](COC1OC(CO)C(O)C(O)C1O)[C@H](O)[C@H](O)CCCCC` (stereo partly drawn) [OCH]: the “effectiveness in CIA, animal model of rheumatoid arthritis” value in test [1] is “high effectiveness”. Further, the “effectiveness in EAE, animal model of multiple sclerosis” value in test [2] is on record as “high effectiveness”.

Turning to `CCCCCCCCCCCCCCCCCCCCCCCCCC(=O)N[C@@H](COC1OC(CO)C(O)C(O)C1O)[C@H](O)[C@H](O)CCCCCCCCCCCCCC` (stereo partly drawn) [α-GC, α-galactosyl ceramide], the “reaction (tritium intake, cytokine production) in mice with no NKT cells” value in the test on mononuclear cells is “not seen”. In addition, in the test on NKT cells, the “IFN-γ production (ELISA, supernatant)” value is on record as “caused”; the “IL-4 production (ELISA, supernatant)” value is reported as “caused”; the “cell proliferation (intake of tritium thymidine)” value is given as “caused”.
